ChEMBL document CHEMBL1201862, “PubChem BioAssay data set” (2004)
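Five compound concentrations were applied to cells in 96-well plates for 48 hours; endpoints were derived by simple linear interpolation of the resulting dose-response curve. At the GI50, growth is halved.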 Activity calls are given as the source filed them. Rule as the data show it: active = GI50 up to about 1.1 µM and inactive = higher.

Columns and labels:
Experiment in all cases: NCI tumour cell line growth inhibition, 48 h
OVCAR-4 = system: OVCAR-4
OVCAR-3 = system: OVCAR-3
CAKI-1 = system: CAKI-1
UO-31 = system: UO-31
SW-620 = system: SW-620
UACC-257 = system: UACC-257
ACHN = system: ACHN
HCC 2998 = system: HCC 2998
SK-MEL-5 = system: SK-MEL-5
HT-29 = system: HT-29
786-0 = system: 786-0
NCI/ADR-RES = system: NCI/ADR-RES
HOP-92 = system: HOP-92
NCI-H23 = system: NCI-H23
NCI-H460 = system: NCI-H460
OVCAR-5 = system: OVCAR-5
COLO 205 = system: COLO 205
NCI-H226 = system: NCI-H226
RPMI-8226 = system: RPMI-8226
SF-539 = system: SF-539

| Structure (SMILES) | GI50 (OVCAR-4) | GI50 (OVCAR-3) | GI50 (CAKI-1) | GI50 (UO-31) | GI50 (SW-620) | GI50 (UACC-257) | GI50 (ACHN) | GI50 (HCC 2998) | GI50 (SK-MEL-5) | GI50 (HT-29) | GI50 (786-0) | GI50 (NCI/ADR-RES) | GI50 (HOP-92) | GI50 (NCI-H23) | GI50 (NCI-H460) | GI50 (OVCAR-5) | GI50 (COLO 205) | GI50 (NCI-H226) | GI50 (RPMI-8226) | GI50 (SF-539) |
| --- | --- | --- | --- | --- | --- | --- | --- | --- | --- | --- | --- | --- | --- | --- | --- | --- | --- | --- | --- | --- |
| CC(=C(C(N)=O)C(N)=O)C1C=C(c2cccs2)CC(c2ccc(Cl)cc2)=C1O (centres undefined) | 5.51 µM (inactive) | 22.3 µM (inactive) | 44.3 µM (inactive) | 16.4 µM (inactive) | 82.8 µM (inactive) | 14.5 µM (inactive) | 52.5 µM (inactive) | 34 µM (inactive) | 20.3 µM (inactive) | 39.8 µM (inactive) | 36.7 µM (inactive) | 44.9 µM (inactive) | 85.9 µM (inactive) | > 100 µM (inactive) | 69 µM (inactive) | > 100 µM (inactive) | 42 µM (inactive) | 73.6 µM (inactive) | 20.4 µM (inactive) |  |
| O=C(/C=C/c1cccs1)c1ccc(C(=O)/C=C/c2cccs2)cc1 | > 100 µM (inactive) | > 100 µM (inactive) | > 100 µM (inactive) | > 100 µM (inactive) | > 100 µM (inactive) | > 100 µM (inactive) | > 100 µM (inactive) | > 100 µM (inactive) |  | > 100 µM (inactive) | > 100 µM (inactive) | > 100 µM (inactive) | > 100 µM (inactive) | > 100 µM (inactive) | > 100 µM (inactive) | > 100 µM (inactive) | > 100 µM (inactive) | > 100 µM (inactive) |  | > 100 µM (inactive) |
| CCCCCC(=O)OCC1(CO)C/C(=C\CC(C(C)C)C(C)C)C(=O)O1 (centres undefined) | > 100 µM (inactive) | > 100 µM (inactive) | 83.6 µM (inactive) | > 100 µM (inactive) | 24.4 µM (inactive) | > 100 µM (inactive) | > 100 µM (inactive) | > 100 µM (inactive) | 38.4 µM (inactive) | 30.7 µM (inactive) | 31.9 µM (inactive) | 87.5 µM (inactive) | 93.3 µM (inactive) | > 100 µM (inactive) | 42.3 µM (inactive) | > 100 µM (inactive) | 17.9 µM (inactive) | 65.5 µM (inactive) |  |  |
| CCN(CC)Cc1sc2nc3ccccc3n2c1-c1ccc(OC)cc1 | 53.2 µM (inactive) | 21.3 µM (inactive) | 38.8 µM (inactive) | 5.28 µM (inactive) | 29 µM (inactive) | > 100 µM (inactive) | 45.1 µM (inactive) | 45.6 µM (inactive) |  | 18.5 µM (inactive) | 35.2 µM (inactive) | 15 µM (inactive) | 27.8 µM (inactive) | 26.9 µM (inactive) |  | 76 µM (inactive) | 21.5 µM (inactive) | 22.8 µM (inactive) | 10.5 µM (inactive) |  |
| CC[C@@]1(N(C)C)C(=O)OCc2c1cc1n(c2=O)Cc2cc3ccccc3nc2-1 | 47.1 µM (inactive) | 27.8 µM (inactive) | > 10 µM (inactive) | 25.4 µM (inactive) | 32.1 µM (inactive) | > 100 µM (inactive) | 20.3 µM (inactive) | 97.7 µM (inactive) | 69.3 µM (inactive) |  | 25.8 µM (inactive) | 21.3 µM (inactive) | 19.1 µM (inactive) | 16.6 µM (inactive) | 12.5 µM (inactive) | > 100 µM (inactive) | > 100 µM (inactive) | 22.4 µM (inactive) | 31.3 µM (inactive) |  |
| CCN1CCCCCCCCCC(=N/O)/C(=N\O)C1 |  | > 100 µM (inactive) | > 100 µM (inactive) | > 100 µM (inactive) | > 100 µM (inactive) | > 100 µM (inactive) | > 100 µM (inactive) |  | > 100 µM (inactive) | > 100 µM (inactive) | > 100 µM (inactive) | > 100 µM (inactive) | > 100 µM (inactive) | > 100 µM (inactive) | > 100 µM (inactive) | > 100 µM (inactive) |  | > 100 µM (inactive) |  | > 100 µM (inactive) |
| NC(=O)C(=O)c1ncn(Cc2ccccc2)c1N | > 100 µM (inactive) | > 100 µM (inactive) | > 100 µM (inactive) |  | > 100 µM (inactive) | > 100 µM (inactive) | > 100 µM (inactive) | > 100 µM (inactive) | > 100 µM (inactive) | > 100 µM (inactive) | > 100 µM (inactive) | > 100 µM (inactive) |  | > 100 µM (inactive) | > 100 µM (inactive) | > 100 µM (inactive) | > 100 µM (inactive) | > 100 µM (inactive) | > 100 µM (inactive) | > 100 µM (inactive) |
| c1ccc2c(CSCc3cccc4ccccc34)cccc2c1 | > 100 µM (inactive) | > 100 µM (inactive) | > 100 µM (inactive) | > 100 µM (inactive) | > 100 µM (inactive) | 52.7 µM (inactive) | > 100 µM (inactive) | 50.8 µM (inactive) | 88.7 µM (inactive) | 40.2 µM (inactive) | > 100 µM (inactive) | > 100 µM (inactive) | > 100 µM (inactive) | > 100 µM (inactive) | 43.4 µM (inactive) | > 100 µM (inactive) |  | > 100 µM (inactive) |  |  |
| CC(=O)C1C(=O)C(=O)N(c2ccc(Cl)c(Cl)c2)C1=O (centres undefined) |  | > 100 µM (inactive) | > 100 µM (inactive) | 99.3 µM (inactive) | > 100 µM (inactive) | > 100 µM (inactive) | > 100 µM (inactive) | > 100 µM (inactive) | > 100 µM (inactive) | > 100 µM (inactive) | > 100 µM (inactive) | > 100 µM (inactive) | > 100 µM (inactive) | > 100 µM (inactive) | > 100 µM (inactive) | > 100 µM (inactive) | > 100 µM (inactive) | > 100 µM (inactive) |  | > 100 µM (inactive) |
| C(=N\c1ccc(-c2cc(-c3ccccc3)nc3ccc4ccccc4c23)cc1)/c1ccccc1 | 2.39 µM (inactive) | 20.4 µM (inactive) | 23.3 µM (inactive) | 15.9 µM (inactive) | 26.2 µM (inactive) | 23.5 µM (inactive) | 34.6 µM (inactive) | 11.4 µM (inactive) | 17.4 µM (inactive) | 7.87 µM (inactive) | 19.5 µM (inactive) | 28.5 µM (inactive) |  | 27.6 µM (inactive) | 19.9 µM (inactive) | 56.1 µM (inactive) | 13.6 µM (inactive) | 22.3 µM (inactive) | 15.6 µM (inactive) | 16.5 µM (inactive) |
| FC1=C2CCCCCC2SC1(F)F (centres undefined) | > 100 µM (inactive) | > 100 µM (inactive) | 35.6 µM (inactive) | > 100 µM (inactive) | 14.8 µM (inactive) | 99.3 µM (inactive) | 29.8 µM (inactive) | > 100 µM (inactive) | > 100 µM (inactive) | 43.6 µM (inactive) | > 100 µM (inactive) | > 100 µM (inactive) | 7.18 µM (inactive) | > 100 µM (inactive) |  | > 100 µM (inactive) | 19.1 µM (inactive) | > 100 µM (inactive) | 28.6 µM (inactive) |  |
| COCCOCCOCCOc1ccc(C(C#N)N(CCc2ccccc2)C(=O)c2cc(C(=O)N(CCc3ccccc3)C(C#N)c3ccc(OCCOCCOCCOC)cc3)cc(C(=O)N(CCc3ccccc3)C(C#N)c3ccc(OCCOCCOCCOC)cc3)c2)cc1 (centres undefined) | > 100 µM (inactive) | > 100 µM (inactive) |  | > 100 µM (inactive) | > 100 µM (inactive) | > 100 µM (inactive) | > 100 µM (inactive) | > 100 µM (inactive) | > 100 µM (inactive) | > 100 µM (inactive) | > 100 µM (inactive) | > 100 µM (inactive) | 85.7 µM (inactive) | > 100 µM (inactive) | > 100 µM (inactive) | > 100 µM (inactive) | > 100 µM (inactive) | > 100 µM (inactive) |  | > 100 µM (inactive) |
| CC1(C)Oc2ccc3c(=O)cc(-c4ccc(F)cc4)oc3c2C1C(=O)O (centres undefined) |  | > 100 µM (inactive) | 23.3 µM (inactive) |  |  | > 100 µM (inactive) |  | > 100 µM (inactive) | > 100 µM (inactive) | > 100 µM (inactive) | > 100 µM (inactive) | > 100 µM (inactive) |  | > 100 µM (inactive) |  | > 100 µM (inactive) | > 100 µM (inactive) | > 100 µM (inactive) |  | > 100 µM (inactive) |
| CC1CCCN1CCCOC(=O)c1ccc(OC2C=CCCC2)cc1 (centres undefined) | 50 µM (inactive) | 39.2 µM (inactive) |  | 34.2 µM (inactive) | 20.7 µM (inactive) | 60.8 µM (inactive) | 33.5 µM (inactive) | 28.6 µM (inactive) | 19.2 µM (inactive) | 17.7 µM (inactive) | 22.3 µM (inactive) | 48.3 µM (inactive) |  | 25.4 µM (inactive) | 17.1 µM (inactive) | 71.9 µM (inactive) | 16.6 µM (inactive) | 29.4 µM (inactive) | 31.8 µM (inactive) | 25.6 µM (inactive) |
| C=C(CC[C@@H](C)[C@H]1CC[C@@]2(C)C3=C(CC[C@]12C)[C@@]1(C)CC[C@H](O)[C@@H](C)C1CC3)C(C)C (some centres undefined) | 1.6 µM (inactive) | 1.77 µM (inactive) | 1.15 µM (inactive) | 1.23 µM (inactive) | 1.71 µM (inactive) | 1.49 µM (inactive) | 1.38 µM (inactive) | 1.53 µM (inactive) | 1.26 µM (inactive) | 0.48 µM (active) | 0.984 µM (active) | 1.4 µM (inactive) | 1.18 µM (inactive) | 1.28 µM (inactive) | 0.679 µM (active) | 1.42 µM (inactive) | 1.17 µM (inactive) | 1.81 µM (inactive) |  | 1.47 µM (inactive) |
